In one data set the test system is Schwann cell cultures. As to the kind of experiment: Treatment of isolated Schwann cell cultures (toxicity). The class given is cell-based.
The next data set relates to MMP. As to the kind of experiment: In situ zymography of nerve explants (net gelatinolytic activity). Type of data set: biochemical, rat. The note with it: nerves cultured 2-day, 2% serum in the presence of GM6001. On the procedure: In the control condition, the MMP inhibitor EDTA (30 mM) was included in the reaction buffer. After incubation for 24 h at 37° C., the sections were rinsed with PBS and fixed with 4% paraformaldehyde in phosphate buffer. The sections were rinsed with water and mounted using Citifluor.

Data set [1] has as its system embryonic chick DRG neurons. Kind of data set: Cryoculture assay of nerve explant cultures (predegeneration). Type of data set: cell-based. Conditions: nerves cultured 2 days, 2% serum, in the presence of GM6001 (50 μM).

Entries after “also recorded” stand apart in the source; their conditions may differ.

Take `CNC(=O)[C@H](Cc1c[nH]c2ccccc12)NC(=O)[C@@H](CC(=O)NO)CC(C)C` [GM6001]: in the data set with Schwann cell cultures, the toxicity entry was “very low toxicity”. For the same molecule, the “gelatinolytic activity in nerve explants” value in the data set on MMP is “nearly undetectable; also recorded: markedly decreased”. Further, in data set [1], the “increase in mean neurite length over uncultured control nerves” value is 14%.

The values are drawn from patent US10441681B2, “Materials and methods for nerve grafting” (University of Florida Research Foundation, Inc., priority 2001, dated 2019).
